2 compounds from ChEMBL document CHEMBL1201862, “PubChem BioAssay data set” (2004) can be followed below.

One series deals with Cytochrome P450 3A4 (Homo sapiens, UniProt P08684).
Series [1] concerns the target T1, Nucleotide-binding oligomerization domain-containing protein 1 (Homo sapiens, UniProt Q9Y239).
T1 sequence (Q9Y239 whole entry): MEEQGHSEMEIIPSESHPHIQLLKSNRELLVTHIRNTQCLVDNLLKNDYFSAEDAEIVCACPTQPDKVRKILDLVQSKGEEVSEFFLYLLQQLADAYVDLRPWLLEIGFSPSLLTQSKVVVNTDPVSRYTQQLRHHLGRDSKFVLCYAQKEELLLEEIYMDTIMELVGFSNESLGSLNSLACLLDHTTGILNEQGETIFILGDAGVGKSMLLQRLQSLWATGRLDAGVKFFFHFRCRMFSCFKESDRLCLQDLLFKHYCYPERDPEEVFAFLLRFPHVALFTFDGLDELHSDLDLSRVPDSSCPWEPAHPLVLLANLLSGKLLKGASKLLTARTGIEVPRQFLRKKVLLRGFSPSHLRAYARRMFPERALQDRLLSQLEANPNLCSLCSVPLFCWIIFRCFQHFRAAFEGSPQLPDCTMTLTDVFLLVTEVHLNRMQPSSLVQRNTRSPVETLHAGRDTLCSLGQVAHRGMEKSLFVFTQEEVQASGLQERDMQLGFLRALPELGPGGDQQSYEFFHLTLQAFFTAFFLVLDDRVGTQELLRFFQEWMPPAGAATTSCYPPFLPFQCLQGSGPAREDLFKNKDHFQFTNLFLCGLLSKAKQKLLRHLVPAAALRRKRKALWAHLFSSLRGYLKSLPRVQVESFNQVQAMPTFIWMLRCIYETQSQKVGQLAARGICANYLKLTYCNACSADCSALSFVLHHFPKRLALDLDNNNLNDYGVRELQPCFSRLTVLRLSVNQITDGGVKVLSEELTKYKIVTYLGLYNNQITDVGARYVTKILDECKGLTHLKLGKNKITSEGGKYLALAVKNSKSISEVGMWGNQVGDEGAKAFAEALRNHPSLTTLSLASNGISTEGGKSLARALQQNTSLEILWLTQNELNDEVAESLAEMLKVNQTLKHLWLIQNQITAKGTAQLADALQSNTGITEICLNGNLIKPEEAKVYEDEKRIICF
The series is described as follows: SAR analysis of NF-kappaB dependent luciferase using DAP as an inducer - Set 2. [Related pubchem assays (depositor defined):AID1566, AID1575, AID1578, AID1579, AID1849, AID1852, AID2264]. Format: functional.

In series [2] the target is T2, Interleukin-8 (Homo sapiens, UniProt P10145).
T2 sequence (P10145 whole entry): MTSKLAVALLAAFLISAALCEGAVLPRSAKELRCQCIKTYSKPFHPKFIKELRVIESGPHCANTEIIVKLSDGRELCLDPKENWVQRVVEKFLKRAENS
The series is described as follows: SAR analysis of Tumor necrosis factor alpha (TNF-alpha) induced IL-8 secretion in MCF-7/NOD1 cells - Set 2. [Related pubchem assays (depositor defined):AID1575, AID2250, AID2260]. The series is classed as functional, cell-based.

Series [3] has as its target T2, Interleukin-8. Kind of series: SAR analysis of GM-Tri-DAP induced IL-8 secretion in MCF-7/NOD1 cells - Set 2. [Related pubchem assays (depositor defined):AID1575, AID1578, AID2333]. Format: functional, cell-based.
The target of series [4] is T3, Nucleotide-binding oligomerization domain-containing protein 2 (Homo sapiens, UniProt Q9HC29). Kind of series: inhibition of NOD2 signaling – set 2, SAR follow-up (AID 2475). Format: functional.
T3 sequence (Q9HC29 whole entry, the tested form may be a part): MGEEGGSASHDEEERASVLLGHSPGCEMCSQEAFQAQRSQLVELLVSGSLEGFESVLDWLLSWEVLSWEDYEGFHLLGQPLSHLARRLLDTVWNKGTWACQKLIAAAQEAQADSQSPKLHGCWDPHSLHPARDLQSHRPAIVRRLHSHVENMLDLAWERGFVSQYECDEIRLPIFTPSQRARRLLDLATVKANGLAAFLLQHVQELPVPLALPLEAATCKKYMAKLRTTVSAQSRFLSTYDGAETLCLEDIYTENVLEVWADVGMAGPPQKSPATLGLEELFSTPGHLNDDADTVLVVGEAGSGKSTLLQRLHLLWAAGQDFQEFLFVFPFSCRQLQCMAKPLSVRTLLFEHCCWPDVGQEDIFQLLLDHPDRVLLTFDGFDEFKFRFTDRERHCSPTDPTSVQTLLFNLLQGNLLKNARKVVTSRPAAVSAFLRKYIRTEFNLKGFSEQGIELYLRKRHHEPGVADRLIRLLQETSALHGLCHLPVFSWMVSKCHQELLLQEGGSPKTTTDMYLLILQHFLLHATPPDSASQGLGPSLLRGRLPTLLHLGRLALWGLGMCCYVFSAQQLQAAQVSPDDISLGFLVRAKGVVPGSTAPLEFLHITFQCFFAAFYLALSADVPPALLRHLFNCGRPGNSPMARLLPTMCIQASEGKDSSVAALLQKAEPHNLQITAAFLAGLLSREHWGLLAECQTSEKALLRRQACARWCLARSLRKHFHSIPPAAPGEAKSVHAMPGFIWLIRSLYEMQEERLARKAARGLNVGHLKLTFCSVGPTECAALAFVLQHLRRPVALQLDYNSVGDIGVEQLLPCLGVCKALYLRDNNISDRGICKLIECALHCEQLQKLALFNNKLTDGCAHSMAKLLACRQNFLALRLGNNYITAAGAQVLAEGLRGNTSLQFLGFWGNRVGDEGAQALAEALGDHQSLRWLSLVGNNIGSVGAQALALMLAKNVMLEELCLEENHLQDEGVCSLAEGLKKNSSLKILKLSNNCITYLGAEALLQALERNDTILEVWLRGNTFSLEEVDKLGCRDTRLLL
In series [5] the test system is HEK293. Kind of series: SAR analysis of compounds that are cytotoxic to HEK293 - Set 2. [Related pubchem assays (depositor defined):AID1575, AID1578, AID1849, AID2001, AID2333, AID2334, AID2335, AID2337, AID2800]. Conditions: Homo sapiens. The series is classed as functional, cell-based.
The target of series [6] is T1, Nucleotide-binding oligomerization domain-containing protein 1. The series is described as follows: SAR analysis of compounds that inhibit NOD1 - Set 3. [Related pubchem assays (depositor defined):AID1566, AID1575, AID1578, AID1849, AID1852, AID2333, AID2335, AID2466]. The series is classed as functional.
The next series addresses Tumor necrosis factor (Homo sapiens, UniProt P01375). Kind of series: analog potency on TNFa NF-kB signaling – cell-based, set 3, SAR follow-up (AID 2801). The series is classed as functional.
The test system of series [7] is HEK293. The series is described as follows: SAR analysis of compounds that are cytotoxic to HEK293 - Set 3. [Related pubchem assays (depositor defined):AID1575, AID1578, AID1848, AID1849, AID2001, AID2333, AID2334, AID2335, AID2337, AID2469]. Conditions: Homo sapiens. The series is classed as functional, cell-based.
Series [8] deals with T3, Nucleotide-binding oligomerization domain-containing protein 2. Kind of series: inhibition of MDP-driven NOD2 NF-kB reporter – cell-based, set 3, SAR follow-up (AID 2799). Format: functional.

Calls of active or inactive are those of the source. Where only a bound is given, the exact number is not on record here.
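Throughout, for AC50: CYP3A4 tested as one member of a cytochrome P450 panel screen.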

Chain of Cytochrome P450 3A4 (P08684 whole entry, the tested form may be a part): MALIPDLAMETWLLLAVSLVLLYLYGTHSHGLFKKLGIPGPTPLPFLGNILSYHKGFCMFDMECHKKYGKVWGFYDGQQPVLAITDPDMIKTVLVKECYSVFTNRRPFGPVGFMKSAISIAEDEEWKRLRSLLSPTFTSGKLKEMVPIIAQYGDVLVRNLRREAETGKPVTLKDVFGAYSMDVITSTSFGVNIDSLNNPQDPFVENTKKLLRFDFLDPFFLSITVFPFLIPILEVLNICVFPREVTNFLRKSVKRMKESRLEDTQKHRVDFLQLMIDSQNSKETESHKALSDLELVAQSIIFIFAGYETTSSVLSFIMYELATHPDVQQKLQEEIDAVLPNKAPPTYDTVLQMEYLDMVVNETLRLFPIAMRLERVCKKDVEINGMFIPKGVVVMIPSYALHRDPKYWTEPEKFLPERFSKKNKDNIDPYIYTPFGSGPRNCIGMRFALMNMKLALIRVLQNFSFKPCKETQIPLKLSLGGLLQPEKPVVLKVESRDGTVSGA
Chain of Tumor necrosis factor (P01375 whole entry): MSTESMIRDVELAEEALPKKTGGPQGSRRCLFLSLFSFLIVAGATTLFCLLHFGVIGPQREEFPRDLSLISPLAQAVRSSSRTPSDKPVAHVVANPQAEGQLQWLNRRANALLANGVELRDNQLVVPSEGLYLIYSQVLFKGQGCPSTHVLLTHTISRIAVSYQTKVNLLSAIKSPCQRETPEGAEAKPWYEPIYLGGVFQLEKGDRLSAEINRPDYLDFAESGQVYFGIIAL

Consider `CC(=O)Nc1ccccc1C(=O)OCc1ccc(C(=O)c2ccccc2)cc1`, for which, on Cytochrome P450 3A4, the AC50 result is given as “inconclusive”.
For `CCCCCn1c(SCCc2ccccc2)nc2c1c(=O)[nH]c(=O)n2C`, the IC50 was > 25 µM (inactive) in series [1]; > 25 µM (inactive) on Interleukin-8 [2]; 4.1 µM (active) on Interleukin-8 [3]; > 20 µM (inactive) in series [4]; > 20 µM (inactive) in the series with HEK293 [5]; 1.74 µM (active) in series [6]. In addition, the IC50 (at Tumor necrosis factor; with HEK293 [7]; in series [8]) was > 20 µM (inactive) each time.
